Tests used:
Assay type in all cases: in vivo
[1] = test system: Phakopsora pachyrhizi containing the amino acid substitution F129L in the mitochondrial cytochrome b protein; assay: Use Example 1: protective control of soybean rust on soybeans (PHAKPA P2); conditions: inoculated 2 days after spraying, % diseased leaf area
Method: (§1) The compound was dissolved in a mixture of acetone and/or dimethylsulfoxide and the wetting agent/emulsifier Wettol, which is based on ethoxylated alkylphenoles, in a ratio (volume) solvent-emulsifier of 99 to 1 to give a total volume of 5 ml. Subsequently, water was added to total volume of 100 ml. This stock solution was then diluted with the described solvent-emulsifier-water mixture to the final concentration given in the tables below.
Use Example 1. Protective Control of Soybean Rust on Soybeans Caused by Phakopsora pachyrhizi (PHAKPA P2)
(§2) Leaves of potted soybean seedlings were sprayed to run-off with the previously described spray solution, containing the concentration of active ingredient or their mixture as described below. The plants were allowed to air-dry. The trial plants were cultivated for 2 days in a greenhouse chamber at 23-27° C. and a relative humidity between 60 and 80%. Then the plants were inoculated with spores of Phakopsora pachyrhizi. The strain used contains the amino acid substitution F129L in the mitochondrial cytochrome b protein conferring resistance to Qo inhibitors. To ensure the success the artificial inoculation, the plants were transferred to a humid chamber with a relative humidity of about 95% and 20 to 24° C. for 24 hr. The trial plants were cultivated for up to 14 days in a greenhouse chamber at 23 to 27° C. and a relative humidity between 60 and 80%. The extent of fungal attack on the leaves was visually assessed as % diseased leaf area, the disease level of untreated controls was usually higher than 85%.

[2] = test system: Phakopsora pachyrhizi containing the amino acid substitution F129L in the mitochondrial cytochrome b protein; assay: Use Example 2: protective control of soybean rust on soybeans (PHAKPA P6); conditions: inoculated six days after spraying, % diseased leaf area
Method: as §1
Use Example 2. Protective Control of Soybean Rust on Soybeans Caused by Phakopsora Pachyrhizi (PHAKPA P6)
as §2, with “active ingredient as described” for “active ingredient or their mixture as described”, “cultivated for six days in” for “cultivated for 2 days in”, “95% and 23 to 27°” for “95% and 20 to 24°”, “23 to 27° C. for” for “20 to 24° C. for”

Puccinia recondita = assay: Use Example 4: preventative control of brown rust on wheat (PUCCRT P7); conditions: inoculated seven days after spraying, % diseased leaf area
Method: as §1
Use Example 4. Preventative Control of Brown Rust on Wheat Caused by Puccinia recondita (PUCCRT P7)
The first two developed leaves of potted wheat seedling were sprayed to run-off with previously described spray solution, containing the concentration of active ingredient or their mixture as described below. Seven days later the plants were dusted with spores of Puccinia recondita. To ensure the success of the artificial inoculation, the plants were transferred to a humid chamber without light and a relative humidity of 95 to 99% and 20 to 24° C. for 24 h. Then the trial plants were cultivated for 9 to 11 days in a greenhouse chamber at 20 to 24° C. and a relative humidity between 65 and 70%. The extent of fungal attack on the leaves was visually assessed as % diseased leaf area, the disease level of untreated controls was usually between 80 and 100%.

Row | Structure (SMILES) | % PHAKPA (F129L) Disease level P2 at 4 ppm [1] | % PHAKPA (F129L) Disease level P2 at 16 ppm [1] | % PHAKPA (F129L) Disease level P6 at 4 ppm [2] | % PHAKPA (F129L) Disease level P6 at 16 ppm [2] | % PUCCRT Disease level P7 at 4 ppm (Puccinia recondita) | % PUCCRT Disease level P7 at 16 ppm (Puccinia recondita)
1 | CO/C=C(/C(=O)OC)c1cccc(Cl)c1CO/N=C(\COC)c1ccccc1Cl [compound 15, Methyl-(E)-2-[3-chloro-2-[[(Z)-[1-(2-chlorophenyl)-2-methoxy-ethylidene]amino]oxymethyl]phenyl]-3-methoxy-prop-2-enoate] | 30% | 4% | 40% | 7% | – | –
2 | CO/C=C(/C(=O)OC)c1cccc(Cl)c1CO/N=C(\COC1CC1)c1ccc(F)cc1 [compound 60] | 21% | 2% | 21% | 6% | – | –
3 | CO/C=C(/C(=O)OC)c1cccc(Cl)c1CO/N=C(\COC1CC1)c1ccccc1 [compound 61] | 11% | 0% | 16% | 2% | – | –
4 | CNC(=O)/C(=N/OC)c1cccc(Cl)c1CO/N=C(\COC1CC1)c1ccc(F)cc1 [compound 64] | 37% | 7% | 45% | 7% | – | –
5 | CO/C=C(/C(=O)OC)c1cccc(Br)c1CO/N=C(\COC1CC1)c1ccc(F)cc1 [compound 65] | 15% | 1% | 23% | 2% | – | –
6 | COC/C(=N\OCc1c(Cl)cccc1/C(=N\OC)C(=O)OC)c1ccc(Cl)c(Cl)c1 [compound 68] | 17% | 2% | 45% | 9% | 40% | 12%
7 | COC/C(=N\OCc1c(Cl)cccc1/C(=N\OC)C(=O)OC)c1cc(F)c(F)c(F)c1 [compound 72] | 19% | 1% | 48% | 10% | 60% | 16%
8 | CNC(=O)/C(=N/OC)c1cccc(Cl)c1CO/N=C(\COC)c1cccc(Cl)c1Cl [compound 75] | 73% | 24% | 25% | 11% | 67% | 33%
9 | COC/C(=N\OCc1c(Cl)cccc1/C(=N\OC)C(=O)OC)c1ccc(F)cc1F [compound 78] | 9% | 0% | 45% | 2% | 42% | 10%
10 | CO/C=C(/C(=O)OC)c1cccc(Cl)c1CO/N=C(\COC)c1ccc(Cl)cc1Cl [compound 81] | 63% | 21% | 35% | 20% | – | –
11 | COC/C(=N\OCc1c(Cl)cccc1/C(=N\OC)C(=O)OC)c1cc(F)cc(F)c1 [compound 82] | 12% | 0% | 57% | 22% | 57% | 17%
12 | CNC(=O)/C(=N/OC)c1cccc(Cl)c1CO/N=C(\COC)c1ccc(Cl)cc1Cl [compound 85] | 42% | 37% | 65% | 25% | – | –
13 | COC/C(=N\OCc1c(Cl)cccc1/C(=N\OC)C(=O)OC)c1c(F)cc(Cl)cc1F [compound 89] | 53% | 17% | 45% | 13% | 36% | 25%
14 | COC/C(=N\OCc1c(Cl)cccc1/C(=N\OC)C(=O)OC)c1ccc(F)c(F)c1 [compound 90] | 11% | 0% | 42% | 13% | 32% | 10%
15 | CNC(=O)/C(=N/OC)c1cccc(Cl)c1CO/N=C(\COC)c1cccc(F)c1F [compound 91] | 13% | 15% | 17% | 18% | – | –
16 | CNC(=O)/C(=N/OC)c1cccc(Cl)c1CO/N=C(\COC)c1ccc(F)cc1Cl [compound 94] | 29% | 5% | 43% | 11% | 57% | 26%
17 | COC/C(=N\OCc1c(Cl)cccc1/C(=N\OC)C(=O)OC)c1ccc(F)c(F)c1F [compound 98] | 72% | 15% | 72% | 31% | 50% | 12%
18 | COC/C(=N\OCc1c(Cl)cccc1/C(=N\OC)C(=O)OC)c1cc(Cl)ccc1F [compound 103] | 72% | 18% | 72% | 18% | – | –
19 | COC/C(=N\OCc1c(Cl)cccc1/C(=N\OC)C(=O)OC)c1ccc(Cl)cc1F [compound 104] | 42% | 7% | 27% | 9% | – | –
20 | CNC(=O)/C(=N/OC)c1cccc(Cl)c1CO/N=C(\COC)c1ccc(F)c(F)c1F [compound 108] | 21% | 4% | 19% | 7% | – | –
21 | COC/C(=N\OCc1c(Cl)cccc1/C(=N\OC)C(=O)OC)c1ccc(Cl)c(F)c1 [compound 114] | 35% | 10% | 82% | 30% | – | –
22 | COC/C(=N\OCc1c(Cl)cccc1/C(=N\OC)C(=O)OC)c1ccccc1C [compound 124] | – | – | – | – | 62% | 22%
23 | COC/C(=N\OCc1c(Cl)cccc1/C(=N\OC)C(=O)OC)c1cccc(C)c1 [compound 126] | 71% | 14% | 73% | 34% | – | –
24 | CO/C=C(/C(=O)OC)c1cccc(Cl)c1CO/N=C(/COC)c1ccc(F)cn1 [compound 132, methyl (E)-2-[3-chloro-2-[[(E)-[1-(5-fluoro-2-pyridyl)-2-methoxy-ethylidene]amino]oxymethyl]phenyl]-3-methoxy-prop-2-enoate] | – | 33% | – | 15% | – | –

From patent publication US20260165323A1, “USE OF STROBILURIN TYPE COMPOUNDS FOR COMBATING PHYTOPATHOGENIC FUNGI CONTAINING AN AMINO ACID SUBSTITUTION F129L IN THE MITOCHONDRIAL CYTOCHROME B PROTEIN CONFERRING RESISTANCE TO QO […]” (priority 2022, published 2026)
